From US9758485B2, “Compounds for controlling arthropods” (priority 2013, dated 2017)

Tested on: not listed separately
Experiment: logP determination by HPLC on a reversed-phase column (C18), EEC Directive 79/831 Annex V.A8
Type: physicochemical
Settings: HPLC-MS method a), Table I-T3
With `O=C(NC1CC1)c1cc(-c2cnn(-c3c(Cl)cc(C(F)(C(F)(F)F)C(F)(F)F)cc3Cl)c2)cnc1Cl` [I-T3-42] the “logP^a)” value was 3.8.
For `N#CC1(NC(=O)c2cc(-c3cnn(-c4c(Cl)cc(C(F)(C(F)(F)F)C(F)(F)F)cc4Cl)c3)cnc2Cl)CC1` [I-T3-43], the “logP^a)” value was 3.8.
With `CCc1cc(C(F)(C(F)(F)F)C(F)(F)F)cc(C)c1-n1cc(-c2ccc(Cl)c(C(=O)NC3CC3)c2)cn1` [I-T3-44] the “logP^a)” value was 4.7.
With `Cc1cc(C(F)(C(F)(F)F)C(F)(F)F)cc(C(F)(F)F)c1-n1cc(-c2ccc(Cl)c(C(=O)NC3CC3)c2)cn1` [I-T3-54] the “logP^a)” value was 4.4.
For `Cc1cc(C(F)(C(F)(F)F)C(F)(F)F)cc(C(F)(F)F)c1-n1cc(-c2ccc(Cl)c(C(=O)NC3(C#N)CC3)c2)cn1` [I-T3-55], the “logP^a)” value was 4.3.

Tested on: Rhipicephalus sanguineus
Experiment: Rhipicephalus sanguineus - in vitro contact tests with adult brown dog ticks
Type: in vivo
Settings: application rate 5 μg/cm^2, after 48 h (dead or moribund)
Description: Rhipicephalus sanguineus—In Vitro Contact Tests with Adult Brown Dog Ticks
For the coating of the test tubes, 9 mg of active ingredient are first dissolved in 1 ml of acetone p.a. and then diluted to the desired concentration with acetone p.a. 250 μl of the solution are distributed homogeneously on the inner walls and base of a 25 ml test tube by turning and rocking on an orbital shaker (rocking rotation at 30 rpm for 2 h). With 900 ppm active ingredient solution and internal surface 44.7 cm^2, given homogeneous distribution, an area-based dose of 5 μg/cm^2 is achieved.
After the solvent has evaporated off, the tubes are populated with 5-10 adult dog ticks (Rhipicephalus sanguineus), sealed with a perforated plastic lid and incubated in a horizontal position in the dark at room temperature and ambient humidity. After 48 h, efficacy is determined. To this end, the ticks are knocked to the floor of the tube and incubated on a hotplate at 45-50° C. for not more than 5 min. Ticks which remain motionless on the floor or move in such an uncoordinated manner that they are unable to deliberately avoid the heat by climbing upwards are considered to be dead or moribund.
An efficacy of 100% means that all the ticks were dead or moribund. 0% efficacy means that none of the ticks had been harmed.
`O=C(NC1CC1)c1cc(-c2cnn(-c3c(Cl)cc(C(F)(C(F)(F)F)C(F)(F)F)cc3Cl)c2)cnc1Cl` [I-T3-42] gave an efficacy of 100%.
`N#CC1(NC(=O)c2cc(-c3cnn(-c4c(Cl)cc(C(F)(C(F)(F)F)C(F)(F)F)cc4Cl)c3)cnc2Cl)CC1` [I-T3-43] gave an efficacy of 80%.
Compound `CCc1cc(C(F)(C(F)(F)F)C(F)(F)F)cc(C)c1-n1cc(-c2ccc(Cl)c(C(=O)NC3CC3)c2)cn1` [I-T3-44] has an efficacy of 100%.
With `Cc1cc(C(F)(C(F)(F)F)C(F)(F)F)cc(C(F)(F)F)c1-n1cc(-c2ccc(Cl)c(C(=O)NC3CC3)c2)cn1` [I-T3-54] the efficacy was 100%.
For `Cc1cc(C(F)(C(F)(F)F)C(F)(F)F)cc(C(F)(F)F)c1-n1cc(-c2ccc(Cl)c(C(=O)NC3(C#N)CC3)c2)cn1` [I-T3-55], the efficacy was 100%.

Tested on: Ctenocephalides felis
Experiment: Ctenocephalides felis - in vitro contact tests with adult cat fleas
Type: in vivo
Settings: application rate 5 μg/cm^2 (=500 g/ha), after 48 h (dead or moribund)
In short: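 Acetone solution coated on test-tube inner walls (900 ppm gives 5 μg/cm^2). After drying, 5-10 adult cat fleas added and kept horizontal at room temperature and ambient humidity. At 48 h fleas knocked down; motionless or uncoordinated ones counted dead/moribund, giving % efficacy.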
Work on `O=C(NC1CC1)c1cc(-c2cnn(-c3c(Cl)cc(C(F)(C(F)(F)F)C(F)(F)F)cc3Cl)c2)cnc1Cl` [I-T3-42] yielded an efficacy of 100%.
With `N#CC1(NC(=O)c2cc(-c3cnn(-c4c(Cl)cc(C(F)(C(F)(F)F)C(F)(F)F)cc4Cl)c3)cnc2Cl)CC1` [I-T3-43] the efficacy was 100%.
For `CCc1cc(C(F)(C(F)(F)F)C(F)(F)F)cc(C)c1-n1cc(-c2ccc(Cl)c(C(=O)NC3CC3)c2)cn1` [I-T3-44], the efficacy was 100%.
With `Cc1cc(C(F)(C(F)(F)F)C(F)(F)F)cc(C(F)(F)F)c1-n1cc(-c2ccc(Cl)c(C(=O)NC3CC3)c2)cn1` [I-T3-54] the efficacy was 100%.
In the case of `Cc1cc(C(F)(C(F)(F)F)C(F)(F)F)cc(C(F)(F)F)c1-n1cc(-c2ccc(Cl)c(C(=O)NC3(C#N)CC3)c2)cn1` [I-T3-55], the efficacy is reported as 100%.

Tested on: Amblyomma hebraeum
Experiment: Amblyomma hebraeum test (tick nymphs, immersion)
Type: in vivo
Settings: application rate 100 ppm; tick nymphs immersed for one minute; kill after 42 days
Description: Solvent: dimethyl sulphoxide
To produce an appropriate active ingredient formulation, 10 mg of active ingredient are mixed with 0.5 ml of dimethyl sulphoxide, and the concentrate is diluted with water to the desired concentration.
Tick nymphs (Amblyomma hebraeum) are placed into perforated plastic beakers and immersed in the desired concentration for one minute. The ticks are transferred on filter paper into a Petri dish and stored in a climate-controlled cabinet.
After 42 days, the kill in % is determined. 100% means that all of the ticks have been killed; 0% means that none of the ticks have been killed.
`O=C(NC1CC1)c1cc(-c2cnn(-c3c(Cl)cc(C(F)(C(F)(F)F)C(F)(F)F)cc3Cl)c2)cnc1Cl` [I-T3-42] showed an efficacy of 100%.
Work on `N#CC1(NC(=O)c2cc(-c3cnn(-c4c(Cl)cc(C(F)(C(F)(F)F)C(F)(F)F)cc4Cl)c3)cnc2Cl)CC1` [I-T3-43] yielded an efficacy of 100%.
Compound `CCc1cc(C(F)(C(F)(F)F)C(F)(F)F)cc(C)c1-n1cc(-c2ccc(Cl)c(C(=O)NC3CC3)c2)cn1` [I-T3-44] has an efficacy of 100%.
For `Cc1cc(C(F)(C(F)(F)F)C(F)(F)F)cc(C(F)(F)F)c1-n1cc(-c2ccc(Cl)c(C(=O)NC3CC3)c2)cn1` [I-T3-54], the efficacy was 100%.
Work on `Cc1cc(C(F)(C(F)(F)F)C(F)(F)F)cc(C(F)(F)F)c1-n1cc(-c2ccc(Cl)c(C(=O)NC3(C#N)CC3)c2)cn1` [I-T3-55] yielded an efficacy of 100%.

Tested on: Boophilus microplus
Experiment: Boophilus microplus - injection test
Type: in vivo
Settings: application rate 20 μg/animal; injected into engorged adult female ticks; laying of fertile eggs, after 7 days
In short: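 DMSO formulation, 1 μl intra-abdominal injection, n=5 engorged adult females; climate-controlled room; score fertile eggs d7, unclear eggs held until larval hatch (~42 d); % efficacy, 100% = no fertile eggs.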
For `O=C(NC1CC1)c1cc(-c2cnn(-c3c(Cl)cc(C(F)(C(F)(F)F)C(F)(F)F)cc3Cl)c2)cnc1Cl` [I-T3-42], the efficacy was 100%.
Compound `N#CC1(NC(=O)c2cc(-c3cnn(-c4c(Cl)cc(C(F)(C(F)(F)F)C(F)(F)F)cc4Cl)c3)cnc2Cl)CC1` [I-T3-43] has an efficacy of 100%.
In the case of `CCc1cc(C(F)(C(F)(F)F)C(F)(F)F)cc(C)c1-n1cc(-c2ccc(Cl)c(C(=O)NC3CC3)c2)cn1` [I-T3-44], the efficacy is reported as 100%.
With `Cc1cc(C(F)(C(F)(F)F)C(F)(F)F)cc(C(F)(F)F)c1-n1cc(-c2ccc(Cl)c(C(=O)NC3CC3)c2)cn1` [I-T3-54] the efficacy was 100%.
`Cc1cc(C(F)(C(F)(F)F)C(F)(F)F)cc(C(F)(F)F)c1-n1cc(-c2ccc(Cl)c(C(=O)NC3(C#N)CC3)c2)cn1` [I-T3-55] gave an efficacy of 100%.

Tested on: Boophilus microplus Parkhurst strain, SP-resistant
Experiment: Boophilus microplus - dip test
Type: in vivo
Settings: application rate 100 ppm; dip of engorged adult female ticks; laying of fertile eggs, after 7 days
In short: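 Adult engorged females of SP-resistant Parkhurst strain (8–10 per tube) fully immersed in compound diluted in water from a DMSO solution. Ticks then kept on filter discs in a climate-controlled room; efficacy scored from fertile egg laying at 7 days, with unclear eggs held about 42 days until hatch (100% = no fertile eggs).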
With `O=C(NC1CC1)c1cc(-c2cnn(-c3c(Cl)cc(C(F)(C(F)(F)F)C(F)(F)F)cc3Cl)c2)cnc1Cl` [I-T3-42] the efficacy was 100%.
Work on `N#CC1(NC(=O)c2cc(-c3cnn(-c4c(Cl)cc(C(F)(C(F)(F)F)C(F)(F)F)cc4Cl)c3)cnc2Cl)CC1` [I-T3-43] yielded an efficacy of 100%.
`CCc1cc(C(F)(C(F)(F)F)C(F)(F)F)cc(C)c1-n1cc(-c2ccc(Cl)c(C(=O)NC3CC3)c2)cn1` [I-T3-44] showed an efficacy of 100%.
For `Cc1cc(C(F)(C(F)(F)F)C(F)(F)F)cc(C(F)(F)F)c1-n1cc(-c2ccc(Cl)c(C(=O)NC3CC3)c2)cn1` [I-T3-54], the efficacy was 100%.
`Cc1cc(C(F)(C(F)(F)F)C(F)(F)F)cc(C(F)(F)F)c1-n1cc(-c2ccc(Cl)c(C(=O)NC3(C#N)CC3)c2)cn1` [I-T3-55] gave an efficacy of 100%.

Tested on: Ctenocephalides felis
Experiment: Ctenocephalides felis - oral test
Type: in vivo
Settings: application rate 100 ppm in citrated cattle blood; adult fleas; kill after 2 days
In short: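 Mortality in % was recorded 2 days after about 20 unfed adult cat fleas were allowed to imbibe citrated cattle blood containing the active ingredient through a parafilm membrane. The compound was first taken up in DMSO and then diluted with the blood to the desired concentration.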
Compound `O=C(NC1CC1)c1cc(-c2cnn(-c3c(Cl)cc(C(F)(C(F)(F)F)C(F)(F)F)cc3Cl)c2)cnc1Cl` [I-T3-42] has an efficacy of 100%.
Work on `N#CC1(NC(=O)c2cc(-c3cnn(-c4c(Cl)cc(C(F)(C(F)(F)F)C(F)(F)F)cc4Cl)c3)cnc2Cl)CC1` [I-T3-43] yielded an efficacy of 100%.
In the case of `CCc1cc(C(F)(C(F)(F)F)C(F)(F)F)cc(C)c1-n1cc(-c2ccc(Cl)c(C(=O)NC3CC3)c2)cn1` [I-T3-44], the efficacy is reported as 100%.
Compound `Cc1cc(C(F)(C(F)(F)F)C(F)(F)F)cc(C(F)(F)F)c1-n1cc(-c2ccc(Cl)c(C(=O)NC3CC3)c2)cn1` [I-T3-54] has an efficacy of 100%.
Work on `Cc1cc(C(F)(C(F)(F)F)C(F)(F)F)cc(C(F)(F)F)c1-n1cc(-c2ccc(Cl)c(C(=O)NC3(C#N)CC3)c2)cn1` [I-T3-55] yielded an efficacy of 100%.

Tested on: Lucilia cuprina
Experiment: Lucilia cuprina test
Type: in vivo
Settings: application rate 100 ppm; L1 larvae in minced horsemeat; kill after 2 days
In short: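 About 20 L1 larvae placed on minced horsemeat treated with compound, formulated in DMSO and diluted with water to test concentration. Kill in % scored after 2 days (100% = all larvae dead, 0% = none).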
`O=C(NC1CC1)c1cc(-c2cnn(-c3c(Cl)cc(C(F)(C(F)(F)F)C(F)(F)F)cc3Cl)c2)cnc1Cl` [I-T3-42] gave an efficacy of 100%.
`N#CC1(NC(=O)c2cc(-c3cnn(-c4c(Cl)cc(C(F)(C(F)(F)F)C(F)(F)F)cc4Cl)c3)cnc2Cl)CC1` [I-T3-43] gave an efficacy of 100%.
Work on `CCc1cc(C(F)(C(F)(F)F)C(F)(F)F)cc(C)c1-n1cc(-c2ccc(Cl)c(C(=O)NC3CC3)c2)cn1` [I-T3-44] yielded an efficacy of 100%.
Compound `Cc1cc(C(F)(C(F)(F)F)C(F)(F)F)cc(C(F)(F)F)c1-n1cc(-c2ccc(Cl)c(C(=O)NC3CC3)c2)cn1` [I-T3-54] has an efficacy of 100%.
Work on `Cc1cc(C(F)(C(F)(F)F)C(F)(F)F)cc(C(F)(F)F)c1-n1cc(-c2ccc(Cl)c(C(=O)NC3(C#N)CC3)c2)cn1` [I-T3-55] yielded an efficacy of 100%.

Tested on: Musca domestica
Experiment: Musca domestica test
Type: in vivo
Settings: application rate 100 ppm; adult houseflies; kill after 2 days
In short: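 Percent kill of adult houseflies is recorded 2 days after exposure, where 100% denotes all flies dead and 0% none. Flies (10 per vessel) feed from a sponge carrying sugar solution and the aqueous-diluted DMSO formulation.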
`O=C(NC1CC1)c1cc(-c2cnn(-c3c(Cl)cc(C(F)(C(F)(F)F)C(F)(F)F)cc3Cl)c2)cnc1Cl` [I-T3-42] gave an efficacy of 100%.
`N#CC1(NC(=O)c2cc(-c3cnn(-c4c(Cl)cc(C(F)(C(F)(F)F)C(F)(F)F)cc4Cl)c3)cnc2Cl)CC1` [I-T3-43] showed an efficacy of 100%.
Work on `Cc1cc(C(F)(C(F)(F)F)C(F)(F)F)cc(C(F)(F)F)c1-n1cc(-c2ccc(Cl)c(C(=O)NC3CC3)c2)cn1` [I-T3-54] yielded an efficacy of 100%.
With `Cc1cc(C(F)(C(F)(F)F)C(F)(F)F)cc(C(F)(F)F)c1-n1cc(-c2ccc(Cl)c(C(=O)NC3(C#N)CC3)c2)cn1` [I-T3-55] the efficacy was 100%.
